For series [1], the target named is T1, FAAH (Fatty Acid Amide Hydrolase) (Mus musculus, UniProt O08914).
T1 construct: The membrane homogenates are prepared extemporaneously by homogenizing the tissues; from tissue; host or cells: mouse brain (minus the cerebellum), membrane homogenate
T1 sequence (O08914 1-579): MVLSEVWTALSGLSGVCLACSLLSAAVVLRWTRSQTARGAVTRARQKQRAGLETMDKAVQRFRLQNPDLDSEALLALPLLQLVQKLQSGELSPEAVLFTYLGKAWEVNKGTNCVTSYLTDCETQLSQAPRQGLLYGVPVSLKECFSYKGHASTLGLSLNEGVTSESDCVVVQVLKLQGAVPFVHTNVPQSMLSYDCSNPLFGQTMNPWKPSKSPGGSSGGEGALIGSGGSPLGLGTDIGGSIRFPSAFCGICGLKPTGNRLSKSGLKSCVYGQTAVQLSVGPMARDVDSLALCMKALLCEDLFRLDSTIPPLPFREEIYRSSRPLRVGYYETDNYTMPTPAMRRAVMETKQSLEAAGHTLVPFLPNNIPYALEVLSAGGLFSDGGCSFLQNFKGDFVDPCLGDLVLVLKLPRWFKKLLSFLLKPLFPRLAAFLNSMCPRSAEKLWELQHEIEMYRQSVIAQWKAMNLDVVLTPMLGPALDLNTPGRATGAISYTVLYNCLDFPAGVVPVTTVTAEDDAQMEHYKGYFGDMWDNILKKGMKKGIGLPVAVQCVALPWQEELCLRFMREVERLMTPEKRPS
Kind of series: radioenzymatic test, hydrolysis of anandamide [ethanolamine 1-3H] with FAAH (protocol 1). It counts as biochemical. The following applies: mouse brain membrane homogenate, anandamide 10 μM, 20 min preincubation at 25° C., read-out: IC50 (concentration that inhibits 50% of the control enzymatic activity of FAAH). The method, then: (§1) The compounds of the invention underwent pharmacological tests to determine their inhibitory effect on the enzyme FAAH (Fatty Acid Amide Hydrolase).
Thus, mouse brains (minus the cerebellum) are removed and stored at −80° C. The membrane homogenates are prepared extemporaneously by homogenizing the tissues using a Precellys® machine in reaction buffer (10 mM Tris-HCl, pH=8, 150 mM NaCl and 1 mM ethylenediaminetetraacetic acid (EDTA)). The enzymatic reaction is performed in 96-well Multiscreen filtration plates in a final volume of 70 μl. Reaction buffer supplemented with fatty acid-free bovine serum albumin (BSA, 1 mg/ml) is used for the enzymatic reaction and the dilution of the compounds and of the anandamide [ethanolamine 1-^3H]. The reaction buffer containing BSA (43 μl/well), the diluted test compounds at various concentrations (7 μl/well containing 1% DMSO) and the membrane preparation (10 μl/well, i.e. 200 μg of tissue per test) are successively added to the wells. After preincubation for 20 minutes of the compounds with the enzyme at 25° C., the reaction is started by adding anandamide [ethanolamine 1-^3H](specific activity of 15-20 Ci/mmol) diluted with cold anandamide (10 μl/well, final concentration of 10 μM, 0.01 μCi per test). After incubation for 20 minutes at 25° C., the enzymatic reaction is stopped by adding a 5M solution of activated carbon prepared in 1.5M NaCl buffer and 0.5M HCl (50 μl/well). The mixture is stirred for 10 minutes then the aqueous phase containing the ethanolamine [1-^3H] is recovered by filtration under vacuum and counted by liquid scintillation.

The target of series [2] is T1, FAAH (Fatty Acid Amide Hydrolase). As to the kind of experiment: fluorescent enzymatic test, hydrolysis of AAMC with FAAH (protocol 2). The class given is biochemical. The following applies: mouse brain homogenate, AAMC 10 μM, 40 min at 37° C., read-out: IC50 (concentration that inhibits 50% of the control enzymatic activity of FAAH). The method, then:
as §1
Thus, mouse brains (minus the cerebellum) are withdrawn and stored at −80° C. The brain homogenates are prepared extemporaneously by homogenizing the tissues using a Precellys® machine in reaction buffer (10 mM Tris-HCl, pH=8, 150 mM NaCl and 1 mM ethylenediamine-tetraacetic acid (EDTA)). The enzymatic reaction is performed in black polystyrene 384-well plates in a final volume of 50 μL. Reaction buffer supplemented with fatty acid-free bovine serum albumin (BSA, 1 mg/ml) is used for the enzymatic reaction, the dilution of the compounds and the dilution of the AAMC. Reaction buffer containing the BSA (25 μl/well), the diluted test compounds at various concentrations (5 μl/well containing 1% DMSO) and the membrane preparation (10 μL/well, i.e. 200 μg of tissue per test) are successively added to the wells. After preincubation for 20 minutes of the compounds with the enzyme at 25° C., the reaction is started by adding 10 μL of substrate per well (AAMC, final concentration of 10 μM). After incubation for 40 minutes at 37° C., the aminomethyl coumarin (AMC) produced is measured by fluorescent counting (Envision plate reader).

By melting point is commonly meant the temperature of the solid-liquid transition.

Regarding `O=C(NC[C@H]1C[C@@H]2CN(c3cccc(C(F)(F)F)n3)C[C@@H]2C1)OCc1cscn1` [Compound No. 1, thiazol-4-ylmethyl ({(3aR,5s,6aS)-2-[6-(trifluoro-methyl)pyrid-2-yl]octahydrocyclopenta[c]pyrrol-5-yl}methyl)carbamate (exo)], in series [1], the IC50 was determined as 200 nM.
Compound `O=C(NC[C@H]1C[C@@H]2CN(c3ccc(-c4ccc(F)cc4)cn3)C[C@@H]2C1)OCc1cscn1` [Compound No. 3, thiazol-4-ylmethyl ({(3aR,5s,6aS)-2-[5-(4-fluoro-phenyl)pyrid-2-yl]octahydrocyclopenta[c]pyrrol-5-yl}-methyl)carbamate (exo)] showed a melting point of 129 to 131 °C. The IC50 in series [1] is 0.98 nM.
The matching figures for `Cn1ncnc1COC(=O)NC[C@H]1C[C@@H]2CN(c3cccc(-c4cncc(F)c4)n3)C[C@@H]2C1` [Compound No. 8, (1-methyl-1H-1,2,4-triazol-5-yl)methyl {[(3aR,5s,6aS)-2-(5′-fluoro-2,3′-bipyrid-6-yl)octahydrocyclopenta[c]-pyrrol-5-yl]methyl}carbamate (exo)]: 136 to 138 °C and 1.1 nM.
The matching figures for `CNC(=O)c1cc(COC(=O)NCC[C@@H]2C[C@@H]3CN(c4ccc(Br)cn4)C[C@@H]3C2)on1` [Compound No. 10, [3-(methylcarbamoyl)isoxazol-5-yl]methyl {2-[(3aR,5r,6aS)-2-(5-bromopyrid-2-yl)octahydrocyclopenta[c]-pyrrol-5-yl]ethyl}carbamate (endo)]: 157 to 159 °C and 2.4 nM.
For the compound `CNC(=O)c1cc(COC(=O)NC2C3CN(c4ccc5cc(F)ccc5n4)CC32)on1` (centres unmarked) [Compound No. 14, [3-(methylcarbamoyl)isoxazol-5-yl]methyl [3-(6-fluoro-quinolin-2-yl)-3-azabicyclo[3.1.0]hex-6-yl]carbamate], the melting point fell in the range of 220 to 222 °C. In series [2], the IC50 was 12 nM.
In the case of `Cn1cc(-c2ccc(N3CC4CC(CNC(=O)OCc5cscn5)CC4C3)nc2)cn1` [compound 4, thiazol-4-ylmethyl ({(3aR,5s,6aS)-2-[5-(1-methyl-1H-pyrazol-4-yl)pyrid-2-yl]octahydrocyclopenta[c]pyrrol-5-yl}methyl)carbamate (exo)], the IC50 in series [1] came to 8.5 nM.
The same measure, in the same setting: the same measure for `Cn1ncnc1COC(=O)NC[C@H]1C[C@@H]2CN(c3ccc(-c4ccc(F)cc4)cn3)C[C@@H]2C1` [compound 7, (1-methyl-1H-1,2,4-triazol-5-yl)methyl ({(3aR,5s,6aS)-2-[5-(4-fluorophenyl)pyrid-2-yl]octahydrocyclopenta[c]-pyrrol-5-yl}methyl)carbamate (exo)]: 170 nM.
